In a compilation of properties of binary mixtures (doi:10.1007/s10953-015-0327-z):
One block for each compound: values may come before it.

Experiment: xn = mol fraction of the nth substance listed
Settings: 298.15 K, 101 kPa

Structure (SMILES): CCCC[n+]1ccn(C)c1.O=S(=O)([N-]S(=O)(=O)C(F)(F)F)C(F)(F)F + O
speed of sound (x2 = 0.012): 1226.2 m/s
speed of sound (x2 = 0.1166): 1228.4 m/s
speed of sound (x2 = 0.1843): 1230.3 m/s

Structure (SMILES): CCCC[N+]1(C)CCCC1.O=S(=O)([N-]S(=O)(=O)C(F)(F)F)C(F)(F)F + O
speed of sound (x2 = 0.0092): 1267.8 m/s
speed of sound (x2 = 0.0139): 1267.7 m/s
speed of sound (x2 = 0.0228): 1267.8 m/s
speed of sound (x2 = 0.0467): 1268.3 m/s
speed of sound (x2 = 0.2014): 1273.9 m/s

Structure (SMILES): CCCn1cc[n+](C)c1.O=S(=O)([N-]S(=O)(=O)C(F)(F)F)C(F)(F)F + O
speed of sound (x2 = 0.0016): 1230.2 m/s
speed of sound (x2 = 0.0556): 1231.7 m/s
speed of sound (x2 = 0.2358): 1236 m/s

speed of sound (x2 = 0.153): 1848.1 m/s
speed of sound (x2 = 0.204): 1847.8 m/s
Structure (SMILES): CC[n+]1ccn(C)c1.N#C[S-] + O
